From US20140256756A1, “PIPERIDINYL-SUBSTITUTED LACTAMS AS GPR119 MODULATORS” (Array BioPharma Inc., priority 2011, published 2014)
Structures can show the parent of a compound that is named as a salt.

System: modified version of the GPR119 receptor (94% identity to human receptor)
Assay: cAMP production assay (LANCE cAMP kit, TR-FRET) in HEK-293 cells
Format: cell-based
Conditions: for cAMP production in HEK-293 cells: HEK-293 cells stably expressing modified GPR119, test compounds 0.2 nM to 10 μM, one-hour incubation; for Fold over baseline: increase in cAMP relative to basal levels, agonist activity if 1.5-fold or greater
Method: The assay utilized HEK-293 cells that stably express a modified version of the GPR119 receptor (94% identity to human receptor), under the control of a CMV promoter containing a tet-on element for tetracycline-inducible expression. GPR119 agonist-induced cyclic AMP (cAMP) production was measured in this cell line using the LANCE cAMP kit (Perkin Elmer, Waltham, Mass.). To generate a working stock of cells for the assay, cells were treated overnight with 1 μg/mL doxycycline at 37° C. in the presence of 5% CO2 to induce receptor expression. Cells were then harvested by enzymatic dissociation with 0.05% trypsin, resuspended in freezing medium (DMEM growth medium with 10% each of fetal bovine serum and DMSO), aliquoted and frozen at −80° C. On the day of the assay, frozen cells were thawed, washed 1× in PBS and resuspended in Hank's buffered salt solution (HBSS) containing 5 mM HEPES, 0.1% BSA and Alexa Fluor 647-conjugated anti-cAMP antibody (diluted 1:100). The cell suspension was then transferred to a Proxiplate Plus white 384-well assay plate (Perkin-Elmer) at 2000 cells/well. Test compounds at final concentrations ranging from 0.2 nM to 10 μM were added to the assay plate, followed by a one-hour incubation at ambient temperature (volume=10 μL/well). DMSO concentration was held constant at 0.5%. After incubation with test compounds, 10 μL, of a detergent buffer containing a biotinylated cAMP/Europium-conjugated streptavidin complex (Europium-labeled cAMP tracer) were added to each well on the assay plate, followed by a 2-hour incubation at ambient temperature. During this incubation cAMP released from lysed cells competes with the Europium-labeled cAMP tracer for binding to the Alexa Fluor 647-conjugated antibody. […] Cellular cAMP levels were then determined by interpolation of raw signal data using a cAMP standard curve. Compounds were determined to have agonist activity if they stimulated a 1.5-fold or greater increase in cAMP relative to basal levels.

| Compound | cAMP production in HEK-293 cells | Fold over baseline |
| --- | --- | --- |
| CC(C)c1nsc(N2CCC(N3CC[C@H](Nc4ccc(S(C)(=O)=O)cc4F)C3=O)CC2)n1 [Example 1, (S)-3-(2-fluoro-4-(methylsulfonyl)phenylamino)-1-(1-(3-isopropyl-1,2,4-thiadiazol-5-yl)piperidin-4-yl)pyrrolidin-2-one] | 21.6 nmol | 3.3 |
| CC(C)c1nsc(N2CCC(N3CC[C@@H](Nc4ccc(S(C)(=O)=O)cc4F)C3=O)CC2)n1 [Example 2, (R)-3-(2-fluoro-4-(methylsulfonyl)phenylamino)-1-(1-(3-isopropyl-1,2,4-thiadiazol-5-yl)piperidin-4-yl)pyrrolidin-2-one] | 21.9 nmol | 3.1 |
| CCS(=O)(=O)c1ccc(N[C@H]2CCN(C3CCN(c4nc(C(C)C)ns4)CC3)C2=O)c(F)c1 [Example 3, (S)-3-(4-(ethylsulfonyl)-2-fluorophenylamino)-1-(1-(3-isopropyl-1,2,4-thiadiazol-5-yl)piperidin-4-yl)pyrrolidin-2-one] | 25.3 nmol | 5.4 |
| CC(C)c1nsc(N2CCC(N3CC[C@H](Nc4ccc(S(=O)(=O)C5CC5)cc4F)C3=O)CC2)n1 [Example 4, (S)-3-(4-(cyclopropylsulfonyl)-2-fluorophenylamino)-1-(1-(3-isopropyl-1,2,4-thiadiazol-5-yl)piperidin-4-yl)pyrrolidin-2-one] | 24.2 nmol | 4.3 |
| CC(C)c1nsc(N2CCC(N3CC[C@H](Nc4cc(F)c(S(C)(=O)=O)cc4F)C3=O)CC2)n1 [Example 5, (S)-3-(2,5-difluoro-4-(methylsulfonyl)phenylamino)-1-(1-(3-isopropyl-1,2,4-thiadiazol-5-yl)piperidin-4-yl)pyrrolidin-2-one] | 19.2 nmol | 2.7 |
| CC(C)c1nsc(N2CCC(N3CC[C@H](Nc4ccc(S(=O)(=O)CC5CC5)cc4F)C3=O)CC2)n1 [Example 6, (S)-3-(4-(cyclopropylmethylsulfonyl)-2-fluorophenylamino)-1-(1-(3-isopropyl-1,2,4-thiadiazol-5-yl)piperidin-4-yl)pyrrolidin-2-one] | 23.2 nmol | 3.2 |
| CC(C)c1nsc(N2CCC(N3CC[C@@H](Nc4ccc(S(=O)(=O)C5CC5)cc4F)C3=O)CC2)n1 [Example 7, (R)-3-(4-(cyclopropylsulfonyl)-2-fluorophenylamino)-1-(1-(3-isopropyl-1,2,4-thiadiazol-5-yl)piperidin-4-yl)pyrrolidin-2-one] | 23.8 nmol | 3.4 |
| CC(C)c1nsc(N2CCC(N3CC[C@H](Nc4ccc(S(=O)(=O)C(C)C)cc4F)C3=O)CC2)n1 [Example 8, (S)-3-(2-fluoro-4-(isopropylsulfonyl)phenylamino)-1-(1-(3-isopropyl-1,2,4-thiadiazol-5-yl)piperidin-4-yl)pyrrolidin-2-one] | 37.6 nmol | 4.7 |
| CC(C)c1nsc(N2CCC(N3CC[C@H](Nc4cc(Cl)c(S(C)(=O)=O)cc4F)C3=O)CC2)n1 [Example 9, (S)-3-(5-chloro-2-fluoro-4-(methylsulfonyl)phenylamino)-1-(1-(3-isopropyl-1,2,4-thiadiazol-5-yl)piperidin-4-yl)pyrrolidin-2-one] | 16.0 nmol | 4.0 |
| CC(C)c1nsc(N2CCC(N3CC[C@H](Nc4ccc(S(C)(=O)=O)cc4C#N)C3=O)CC2)n1 [Example 10, (S)-2-(1-(1-(3-isopropyl-1,2,4-thiadiazol-5-yl)piperidin-4-yl)-2-oxopyrrolidin-3-ylamino)-5-(methylsulfonyl)benzonitrile] | 11.3 nmol | 2.3 |
| CC(C)c1nsc(N2CCC(N3CC[C@H](Nc4ccc(S(C)(=O)=O)c(Cl)c4)C3=O)CC2)n1 [Example 11, (S)-3-(3-chloro-4-(methylsulfonyl)phenylamino)-1-(1-(3-isopropyl-1,2,4-thiadiazol-5-yl)piperidin-4-yl)pyrrolidin-2-one] | 10.8 nmol | 3.0 |
| CC(C)c1nsc(N2CCC(N3CC[C@H](Nc4ccc(S(C)(=O)=O)cc4Cl)C3=O)CC2)n1 [Example 12, (S)-3-(2-chloro-4-(methylsulfonyl)phenylamino)-1-(1-(3-isopropyl-1,2,4-thiadiazol-5-yl)piperidin-4-yl)pyrrolidin-2-one] | 17.5 nmol | 3.9 |
| CC(C)c1nsc(N2CCC(N3CC[C@@H](Nc4ccc(S(=O)(=O)N(C)C)cc4F)C3=O)CC2)n1 [Example 13, (R)-3-fluoro-4-(1-(1-(3-isopropyl-1,2,4-thiadiazol-5-yl)piperidin-4-yl)-2-oxopyrrolidin-3-ylamino)-N,N-dimethylbenzenesulfonamide] | 25.2 nmol | 3.4 |
| CC(C)c1nsc(N2CCC(N3CC[C@H](Nc4ncc(S(C)(=O)=O)cn4)C3=O)CC2)n1 [Example 14, (S)-1-(1-(3-isopropyl-1,2,4-thiadiazol-5-yl)piperidin-4-yl)-3-(5-(methylsulfonyl)pyrimidin-2-ylamino)pyrrolidin-2-one] | 17.5 nmol | 2.8 |
| CC(C)c1nsc(N2CCC(N3CC[C@H](Nc4ccc(Br)cn4)C3=O)CC2)n1 [Example 15, (S)-3-(5-Bromopyridin-2-ylamino)-1-(1-(3-isopropyl-1,2,4-thiadiazol-5-yl)piperidin-4-yl)pyrrolidin-2-one] | 11.4 nmol | 2.7 |
| CC(C)c1nsc(N2CCC(N3CC[C@H](Nc4ccc(S(C)(=O)=O)cn4)C3=O)CC2)n1 [Example 16, (S)-1-(1-(3-isopropyl-1,2,4-thiadiazol-5-yl)piperidin-4-yl)-3-(5-(methylsulfonyl)pyridin-2-ylamino)pyrrolidin-2-one] | 27.2 nmol | 3.7 |
| Cc1cc(S(C)(=O)=O)cnc1N[C@H]1CCN(C2CCN(c3nc(C(C)C)ns3)CC2)C1=O [Example 17, (S)-1-(1-(3-isopropyl-1,2,4-thiadiazol-5-yl)piperidin-4-yl)-3-(3-methyl-5-(methylsulfonyl)pyridin-2-ylamino)pyrrolidin-2-one] | 11.2 nmol | 2.1 |
| Cc1cc(N[C@H]2CCN(C3CCN(c4nc(C(C)C)ns4)CC3)C2=O)c(F)cc1S(C)(=O)=O [Example 18, (S)-3-(2-fluoro-5-methyl-4-(methylsulfonyl)phenylamino)-1-(1-(3-isopropyl-1,2,4-thiadiazol-5-yl)piperidin-4-yl)pyrrolidin-2-one] | 20.1 nmol | 3.4 |
| CCS(=O)(=O)c1ccc(NC2CCN(C3CCN(c4nc(C(C)C)ns4)CC3)C2=O)cc1C (stereo not shown) [Example 19, 3-(4-(Ethylsulfonyl)-3-methylphenylamino)-1-(1-(3-isopropyl-1,2,4-thiadiazol-5-yl)piperidin-4-yl)pyrrolidin-2-one] | 16.4 nmol | 2.4 |
| CCS(=O)(=O)c1ccc(NC2CCN(C3CCN(c4nc(C(C)C)ns4)CC3)C2=O)cc1F (stereo not shown) [Example 20, 3-(4-(ethylsulfonyl)-3-fluorophenylamino)-1-(1-(3-isopropyl-1,2,4-thiadiazol-5-yl)piperidin-4-yl)pyrrolidin-2-one] | 22.6 nmol | 3.5 |
| Cc1cc(S(C)(=O)=O)ccc1NC1CCN(C2CCN(c3nc(C(C)C)ns3)CC2)C1=O (stereo not shown) [Example 21, 1-(1-(3-isopropyl-1,2,4-thiadiazol-5-yl)piperidin-4-yl)-3-(2-methyl-4-(methyl-sulfonyl)phenylamino) pyrrolidin-2-one] | 13.0 nmol | 3.3 |
| CC(C)Cc1nsc(N2CCC(N3CC[C@H](Nc4ccc(S(C)(=O)=O)cc4F)C3=O)CC2)n1 [Example 22, (S)-3-(2-fluoro-4-(methylsulfonyl)phenylamino)-1-(1-(3-isobutyl-1,2,4-thiadiazol-5-yl)piperidin-4-yl)pyrrolidin-2-one trifluoroacetate] | 22.1 nmol | 7.6 |
| CS(=O)(=O)c1ccc(N[C@H]2CCN(C3CCN(c4nc(C5CC5)ns4)CC3)C2=O)c(F)c1 [Example 23, (S)-1-(1-(3-cyclopropyl-1,2,4-thiadiazol-5-yl)piperidin-4-yl)-3-(2-fluoro-4-(methyl-sulfonyl)phenylamino) pyrrolidin-2-one] | 11.9 nmol | 2.9 |
